From patent US8148415B2, “Sulfamic acid ester compounds useful in the inhibition of steroid sulphatase activity and aromatase activity” (Sterix Limited, priority 2004, dated 2012)
Read-outs that look alike come from different tables or passages of the source.

Experiments:
rats = conditions: rat, in vivo, cited from earlier work
Steroid sulphatase [1] = biological target: T1, Steroid sulphatase (Homo sapiens, UniProt P08842); conditions: cited from earlier work
T1 sequence (P08842 22-583): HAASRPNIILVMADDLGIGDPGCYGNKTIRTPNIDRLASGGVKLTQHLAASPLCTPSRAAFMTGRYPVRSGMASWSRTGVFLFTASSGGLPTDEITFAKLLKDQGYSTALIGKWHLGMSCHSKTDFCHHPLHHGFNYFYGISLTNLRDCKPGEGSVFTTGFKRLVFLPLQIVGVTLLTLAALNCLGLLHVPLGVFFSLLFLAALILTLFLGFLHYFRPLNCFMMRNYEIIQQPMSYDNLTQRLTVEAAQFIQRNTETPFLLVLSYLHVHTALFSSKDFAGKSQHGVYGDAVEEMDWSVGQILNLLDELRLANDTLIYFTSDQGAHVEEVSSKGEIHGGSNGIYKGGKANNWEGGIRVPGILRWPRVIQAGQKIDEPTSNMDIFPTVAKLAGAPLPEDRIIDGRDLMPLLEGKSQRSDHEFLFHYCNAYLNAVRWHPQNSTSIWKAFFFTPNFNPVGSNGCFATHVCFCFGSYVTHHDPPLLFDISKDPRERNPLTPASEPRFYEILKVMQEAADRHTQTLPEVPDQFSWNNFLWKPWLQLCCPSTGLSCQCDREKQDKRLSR

[2] = cited from earlier work
E1-STS = biological target: T2, E1-STS (Homo sapiens, UniProt P08842); conditions: intact MCF-7 cells, 0.1 nM; cited from earlier work
T2 construct: endogenous in cells; host or cells: MCF-7 cells
T2 sequence (P08842 22-583): T1 sequence (P08842 22-583)

rat liver E1-STS = biological target: T3, rat liver E1-STS (Rattus norvegicus, UniProt P15589); conditions: administered orally or subcutaneously; cited from earlier work
T3 construct: from tissue; host or cells: rat liver
T3 sequence (P15589 20-577): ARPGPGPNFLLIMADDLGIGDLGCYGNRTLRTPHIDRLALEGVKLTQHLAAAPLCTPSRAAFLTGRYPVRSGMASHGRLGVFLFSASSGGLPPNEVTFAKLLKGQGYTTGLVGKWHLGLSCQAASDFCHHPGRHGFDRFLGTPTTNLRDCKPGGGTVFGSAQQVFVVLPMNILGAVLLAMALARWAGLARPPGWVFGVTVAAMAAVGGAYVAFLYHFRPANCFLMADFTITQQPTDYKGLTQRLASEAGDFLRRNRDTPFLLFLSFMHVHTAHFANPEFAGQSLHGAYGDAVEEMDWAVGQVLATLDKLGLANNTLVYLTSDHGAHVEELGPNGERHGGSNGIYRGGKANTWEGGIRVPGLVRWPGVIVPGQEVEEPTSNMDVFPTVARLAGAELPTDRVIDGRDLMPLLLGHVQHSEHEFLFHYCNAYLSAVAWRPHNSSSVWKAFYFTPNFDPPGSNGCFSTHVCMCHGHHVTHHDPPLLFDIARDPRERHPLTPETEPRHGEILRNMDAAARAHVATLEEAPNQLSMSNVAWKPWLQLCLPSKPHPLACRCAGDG

rat liver DHEA-STS = biological target: T4, rat liver DHEA-STS (Rattus norvegicus, UniProt P15589); conditions: administered orally or subcutaneously; cited from earlier work
T4 construct: rat liver E1-STS (99%) and DHEA-STS (99%) activities; from tissue; host or cells: rat liver
T4 sequence (P15589 20-577): T3 sequence (P15589 20-577)

Aromatase = biological target: T5, Aromatase (Homo sapiens, UniProt P11511); assay: Aromatase activity in intact JEG3 choriocarcinoma cells (Protocol 6); type: cell-based
T5 construct: Aromatase activity is measured in JEG3 choriocarcinoma cells, obtained from the ATCC; host or cells: JEG3 choriocarcinoma cells
T5 sequence (P11511 1-503): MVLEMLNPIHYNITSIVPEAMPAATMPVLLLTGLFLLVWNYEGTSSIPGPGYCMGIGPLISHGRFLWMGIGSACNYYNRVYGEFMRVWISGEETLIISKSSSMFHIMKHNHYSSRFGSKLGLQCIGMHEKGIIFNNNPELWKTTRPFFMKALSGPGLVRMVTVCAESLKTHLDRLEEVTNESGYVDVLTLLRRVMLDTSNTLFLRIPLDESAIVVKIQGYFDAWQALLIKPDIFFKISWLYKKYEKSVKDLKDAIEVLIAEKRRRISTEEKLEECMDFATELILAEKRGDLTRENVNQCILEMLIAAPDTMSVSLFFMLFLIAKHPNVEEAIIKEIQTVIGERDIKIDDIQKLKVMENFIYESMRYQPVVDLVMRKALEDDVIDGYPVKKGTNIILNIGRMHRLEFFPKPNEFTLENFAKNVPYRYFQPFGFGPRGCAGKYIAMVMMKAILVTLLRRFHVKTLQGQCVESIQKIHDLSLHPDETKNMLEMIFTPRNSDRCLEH

Steroid sulphatase [3] = biological target: T1, Steroid sulphatase; assay: Inhibition of steroid sulphatase activity in intact JEG3 cells (Protocol 1); type: cell-based; set-up: host or cells: JEG3 choriocarcinoma cells; conditions: read-out: JEG3 cells IC50 Sulfatase
Protocol: Assay for Determining STS Activity Using Cancer Cells
Inhibition of Steroid Sulphatase Activity in JEG3 Cells
Steroid sulphatase activity is measured in vitro using intact JEG3 choriocarcinoma cells. This cell line may be used to study the control of human breast cancer cell growth.
Cells are maintained in Minimal Essential Medium (MEM) (Flow Laboratories, Irvine, Scotland) containing 20 mM HEPES, 5% foetal bovine serum, 2 mM glutamine, non-essential amino acids and 0.075% sodium bicarbonate. Up to 30 replicate 25 cm2 tissue culture flasks are seeded with approximately 1×10^5 cells/flask using the above medium. Cells are grown to 80% confluency and the medium is changed every third day.
Intact monolayers of JEG3 cells in triplicate 25 cm^2 tissue culture flasks are washed with Earle's Balanced Salt Solution (EBSS from ICN Flow, High Wycombe, U.K.) and incubated for 3-4 hours at 37° C. with 5 pmol (7×10^5 dpm) [6,7-3H]oestrone-3-sulphate (specific activity 60 Ci/mmol from New England Nuclear, Boston, Mass., U.S.A.) in serum-free MEM (2.5 ml) together with oestrone-3-sulphamate (11 concentrations: 0; 1 fM; 0.01 pM; 0.1 pM; 1 pM; 0.01 nM; 0.1 nM; 1 nM; 0.01 mM; 0.1 mM; 1 mM). […] A portion (2 ml) of the organic phase is removed, evaporated and the 3H and 14C content of the residue determined by scintillation spectrometry. […]

## COc1ccc(C(c2ccc(OC)c(O)c2)n2cncn2)cc1O
other
  melting point: 217.5 to 219 °C

## COc1cc2c(cc1OS(N)(=O)=O)CC[C@@H]1[C@@H]2CC[C@]2(C)C(=O)CC[C@@H]12 [2-methoxyoestrone-3-O-sulphamate]
rats
  oestrogenicity: devoid of oestrogenicity
Steroid sulphatase [1]
  potency as steroid sulphatase inhibitor relative to EMATE: equipotent with EMATE

## C[C@]12CC[C@@H]3c4ccc(OS(=O)(=O)O)cc4CC[C@H]3[C@@H]1CCC2=O [E1S, oestrone sulphate]
[2]
  half-life in blood: 10 to 12 h

## CC12CCC3c4ccc(OS(N)(=O)=O)cc4CCC3C1CCC2=O (centres unmarked) [EMATE, oestrone-3-sulphamate]
rats; po
  oral uterotrophic activity relative to estradiol: 100 times
E1-STS
  inhibition of E1-STS activity: more than 99%
Rat liver E1-STS
  inhibition of rat liver E1-STS activity: 99%
Rat liver DHEA-STS
  inhibition of rat liver DHEA-STS activity: 99%

## N#Cc1ccc(N(Cc2cccc(OS(N)(=O)=O)c2)n2cnnc2)cc1 [STX334, 4-[(3-O-Sulfamoylbenzyl)(4-cyanophenyl)amino]-4H-[1,2,4]triazole]
Aromatase; intact JEG3 cells
  IC50: 39 nM
Steroid sulphatase [3]
  IC50: 5130 nM

## N#Cc1ccc(N(Cc2ccc(Br)c(OS(N)(=O)=O)c2)n2cnnc2)cc1 [STX1217, 4-[(4-Bromo-3-O-sulfamoylbenzyl)(4cyanophenyl)amino]-4H-[1,2,4]triazole]
Aromatase
  IC50: 3.9 nM
